Read-outs that look alike come from different tables or passages of the source.
How the values were obtained:
Experiment in all cases: Kinase selectivity, P33-radiolabeled assay
Format in all cases: biochemical
Conditions in all cases: 10 μM ATP
[1] = molecular target: T1, ARK5/NUAK1 (Homo sapiens, UniProt O60285)
T1 construct: purchased Reaction Biology Corp
T1 sequence (O60285 1-661): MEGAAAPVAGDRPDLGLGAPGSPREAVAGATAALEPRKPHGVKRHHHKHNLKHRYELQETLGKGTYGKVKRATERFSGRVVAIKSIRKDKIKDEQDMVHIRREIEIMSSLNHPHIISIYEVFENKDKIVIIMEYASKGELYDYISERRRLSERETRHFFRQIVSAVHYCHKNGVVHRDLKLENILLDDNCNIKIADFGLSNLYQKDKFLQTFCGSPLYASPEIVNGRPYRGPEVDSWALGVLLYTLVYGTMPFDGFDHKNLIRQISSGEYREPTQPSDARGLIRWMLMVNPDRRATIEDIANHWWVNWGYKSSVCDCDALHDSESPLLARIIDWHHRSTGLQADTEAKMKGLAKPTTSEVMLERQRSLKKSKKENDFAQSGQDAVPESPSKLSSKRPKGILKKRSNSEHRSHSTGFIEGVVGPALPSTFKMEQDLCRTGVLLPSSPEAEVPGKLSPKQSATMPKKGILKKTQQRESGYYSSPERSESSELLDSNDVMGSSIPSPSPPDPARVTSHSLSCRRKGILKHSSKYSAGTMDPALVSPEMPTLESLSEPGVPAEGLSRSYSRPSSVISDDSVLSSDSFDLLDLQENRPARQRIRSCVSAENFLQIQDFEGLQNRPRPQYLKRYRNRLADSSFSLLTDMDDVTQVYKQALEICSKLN
Procedure, shortened: (§1)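 Duplicate single-concentration testing used 10 μM compound. The ATP concentration was also 10 μM.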

[2] = molecular target: T2, ALK6/BMPR1B (Homo sapiens, UniProt O00238)
T2 construct: purchased Reaction Biology Corp
Procedure, shortened: as §1

[3] = molecular target: T3, TAOK1 (Homo sapiens, UniProt Q7L7X3)
T3 construct: purchased Reaction Biology Corp
T3 sequence (Q7L7X3 1-1001): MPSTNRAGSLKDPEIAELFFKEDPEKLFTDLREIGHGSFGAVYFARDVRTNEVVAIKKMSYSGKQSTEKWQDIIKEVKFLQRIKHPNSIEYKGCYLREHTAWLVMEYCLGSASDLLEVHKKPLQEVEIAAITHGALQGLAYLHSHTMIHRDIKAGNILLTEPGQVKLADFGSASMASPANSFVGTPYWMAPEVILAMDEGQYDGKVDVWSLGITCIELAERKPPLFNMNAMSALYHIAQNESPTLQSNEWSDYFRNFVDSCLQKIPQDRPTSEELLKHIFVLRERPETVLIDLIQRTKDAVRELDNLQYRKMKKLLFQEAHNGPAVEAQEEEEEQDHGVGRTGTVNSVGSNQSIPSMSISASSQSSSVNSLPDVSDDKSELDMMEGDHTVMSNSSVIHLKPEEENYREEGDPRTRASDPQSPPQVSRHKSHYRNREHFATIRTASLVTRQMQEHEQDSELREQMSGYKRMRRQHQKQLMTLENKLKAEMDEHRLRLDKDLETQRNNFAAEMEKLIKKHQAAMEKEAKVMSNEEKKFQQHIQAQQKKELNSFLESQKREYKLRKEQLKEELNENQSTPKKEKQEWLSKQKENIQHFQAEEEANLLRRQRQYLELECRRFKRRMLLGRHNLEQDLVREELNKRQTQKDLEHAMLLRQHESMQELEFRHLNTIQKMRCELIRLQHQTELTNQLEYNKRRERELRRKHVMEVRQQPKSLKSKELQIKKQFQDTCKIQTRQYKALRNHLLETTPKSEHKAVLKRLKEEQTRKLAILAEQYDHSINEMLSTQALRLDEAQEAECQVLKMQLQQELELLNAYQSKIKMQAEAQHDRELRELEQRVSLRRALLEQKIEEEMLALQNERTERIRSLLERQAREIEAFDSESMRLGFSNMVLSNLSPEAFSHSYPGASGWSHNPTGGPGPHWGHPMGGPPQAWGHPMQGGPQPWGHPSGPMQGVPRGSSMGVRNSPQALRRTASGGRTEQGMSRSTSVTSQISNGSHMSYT
Procedure, shortened: as §1

[4] = molecular target: T4, ARAF (Homo sapiens, UniProt P10398)
T4 construct: purchased Reaction Biology Corp
T4 sequence (P10398 1-606): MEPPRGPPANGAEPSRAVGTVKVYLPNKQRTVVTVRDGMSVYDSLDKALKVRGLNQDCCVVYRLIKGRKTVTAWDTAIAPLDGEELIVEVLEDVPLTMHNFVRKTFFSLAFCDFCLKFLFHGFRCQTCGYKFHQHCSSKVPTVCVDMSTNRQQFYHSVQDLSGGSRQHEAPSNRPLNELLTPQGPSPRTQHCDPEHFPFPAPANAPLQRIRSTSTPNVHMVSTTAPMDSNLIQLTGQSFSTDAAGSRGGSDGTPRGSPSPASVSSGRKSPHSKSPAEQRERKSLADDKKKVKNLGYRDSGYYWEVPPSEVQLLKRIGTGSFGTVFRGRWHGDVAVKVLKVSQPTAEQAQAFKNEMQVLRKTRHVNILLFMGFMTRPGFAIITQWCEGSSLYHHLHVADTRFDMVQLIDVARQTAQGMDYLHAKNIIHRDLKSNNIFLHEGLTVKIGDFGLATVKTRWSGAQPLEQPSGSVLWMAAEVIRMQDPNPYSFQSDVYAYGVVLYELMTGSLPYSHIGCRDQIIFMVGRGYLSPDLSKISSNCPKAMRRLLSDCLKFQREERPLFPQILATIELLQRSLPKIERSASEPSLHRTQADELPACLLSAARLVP
Procedure, shortened: as §1

[5] = molecular target: T5, STK39/STLK3 (Homo sapiens, UniProt Q9UEW8)
T5 construct: purchased Reaction Biology Corp
Procedure, shortened: as §1

[6] = molecular target: T6, JAK1 (Homo sapiens, UniProt P23458)
T6 construct: purchased Reaction Biology Corp
Procedure, shortened: as §1

[7] = molecular target: T7, PIM1 (Homo sapiens, UniProt P11309)
T7 construct: purchased Reaction Biology Corp
Procedure, shortened: as §1

[8] = read-out: % Enzyme Activity (relative to DMSO controls) AVG
[9] = read-out: % Enzyme Activity (relative to DMSO controls) Data 1
[10] = read-out: % Enzyme Activity (relative to DMSO controls) Data 2

T2 sequence (O00238 14-502): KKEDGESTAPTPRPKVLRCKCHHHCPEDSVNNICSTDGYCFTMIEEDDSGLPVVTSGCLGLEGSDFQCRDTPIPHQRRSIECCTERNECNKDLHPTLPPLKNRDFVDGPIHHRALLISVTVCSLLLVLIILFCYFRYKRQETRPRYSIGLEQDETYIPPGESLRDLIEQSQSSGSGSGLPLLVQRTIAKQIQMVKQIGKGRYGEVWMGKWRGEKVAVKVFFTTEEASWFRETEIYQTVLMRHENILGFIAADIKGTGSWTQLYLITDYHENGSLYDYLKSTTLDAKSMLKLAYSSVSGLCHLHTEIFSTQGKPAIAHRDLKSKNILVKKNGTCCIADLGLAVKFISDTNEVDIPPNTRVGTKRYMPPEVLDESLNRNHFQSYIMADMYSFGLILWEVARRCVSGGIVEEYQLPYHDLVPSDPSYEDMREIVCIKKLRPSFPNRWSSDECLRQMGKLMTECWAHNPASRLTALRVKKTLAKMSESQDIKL
T7 sequence (P11309 whole entry): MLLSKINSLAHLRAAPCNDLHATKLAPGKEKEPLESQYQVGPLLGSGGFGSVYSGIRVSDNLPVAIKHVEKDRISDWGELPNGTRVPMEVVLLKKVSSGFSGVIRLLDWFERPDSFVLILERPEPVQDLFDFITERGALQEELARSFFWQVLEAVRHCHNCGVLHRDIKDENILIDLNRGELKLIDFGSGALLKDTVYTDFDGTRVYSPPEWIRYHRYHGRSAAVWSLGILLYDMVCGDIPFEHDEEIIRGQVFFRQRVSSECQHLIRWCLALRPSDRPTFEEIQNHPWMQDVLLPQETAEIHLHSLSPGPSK
T6 sequence (P23458 whole entry): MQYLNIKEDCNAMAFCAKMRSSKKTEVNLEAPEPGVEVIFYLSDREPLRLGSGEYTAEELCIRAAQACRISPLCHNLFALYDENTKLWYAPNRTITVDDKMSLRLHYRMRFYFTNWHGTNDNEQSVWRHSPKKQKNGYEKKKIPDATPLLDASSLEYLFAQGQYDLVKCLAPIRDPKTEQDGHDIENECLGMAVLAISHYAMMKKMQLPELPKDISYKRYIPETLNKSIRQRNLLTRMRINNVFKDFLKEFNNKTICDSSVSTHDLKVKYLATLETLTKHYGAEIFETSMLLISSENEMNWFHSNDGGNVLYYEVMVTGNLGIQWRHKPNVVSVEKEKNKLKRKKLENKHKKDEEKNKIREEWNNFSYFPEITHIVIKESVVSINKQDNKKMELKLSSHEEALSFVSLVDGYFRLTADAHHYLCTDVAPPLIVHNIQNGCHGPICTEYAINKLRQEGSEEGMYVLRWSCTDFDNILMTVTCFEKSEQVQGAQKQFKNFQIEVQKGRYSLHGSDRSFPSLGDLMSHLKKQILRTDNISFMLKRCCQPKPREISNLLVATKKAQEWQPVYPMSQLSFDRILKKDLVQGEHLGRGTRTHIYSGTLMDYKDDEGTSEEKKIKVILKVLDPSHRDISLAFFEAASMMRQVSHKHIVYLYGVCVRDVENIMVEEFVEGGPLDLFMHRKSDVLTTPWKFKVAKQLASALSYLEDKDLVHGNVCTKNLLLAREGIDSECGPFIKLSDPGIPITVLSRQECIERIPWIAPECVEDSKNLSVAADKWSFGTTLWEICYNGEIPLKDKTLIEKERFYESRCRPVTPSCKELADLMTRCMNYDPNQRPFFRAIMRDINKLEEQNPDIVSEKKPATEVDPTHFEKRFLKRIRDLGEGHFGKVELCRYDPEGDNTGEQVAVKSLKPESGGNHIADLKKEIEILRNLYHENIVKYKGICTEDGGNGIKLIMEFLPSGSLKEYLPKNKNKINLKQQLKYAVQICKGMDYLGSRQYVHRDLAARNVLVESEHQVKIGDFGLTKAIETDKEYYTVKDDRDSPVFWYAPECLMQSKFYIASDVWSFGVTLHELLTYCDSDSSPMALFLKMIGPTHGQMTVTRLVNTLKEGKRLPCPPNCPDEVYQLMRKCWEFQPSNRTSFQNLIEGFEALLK

CC(C)(C)C(=O)N1N=CC[C@H]1c1ccccc1 [GSK′963]
remaining activity at 10 µM [1, 8]: 98%
remaining activity at 10 µM [1, 9]: 95.8%
remaining activity at 10 µM [1, 10]: 100%
remaining activity at 10 µM [2, 8]: 90.5%
remaining activity at 10 µM [2, 9]: 91%
remaining activity at 10 µM [2, 10]: 90%
remaining activity at 10 µM [3, 8]: 99.3%
remaining activity at 10 µM [3, 9]: 101%
remaining activity at 10 µM [3, 10]: 97.8%
remaining activity at 10 µM [4, 8]: 93.7%
remaining activity at 10 µM [4, 9]: 94.6%
remaining activity at 10 µM [4, 10]: 92.9%
remaining activity at 10 µM [5, 8]: 95.1%
remaining activity at 10 µM [5, 9]: 100%
remaining activity at 10 µM [5, 10]: 89.9%
remaining activity at 10 µM [6, 8]: 98.8%
remaining activity at 10 µM [6, 9]: 97.9%
remaining activity at 10 µM [6, 10]: 99.8%
remaining activity at 10 µM [7, 8]: 109%
remaining activity at 10 µM [7, 9]: 113%
remaining activity at 10 µM [7, 10]: 106%
